Assay results from paper PMC8340127 (iScience, 2021).
Where two headings read alike, the source gives them in different places. Residues, ends and D or L forms follow the SMILES beside them.

How the values were obtained:
[1] = pH 7.4
[2] = molecular target: T1, 15N-Aβ40 (Homo sapiens, UniProt P05067); assay type: biochemical; conditions: pH 7.35
T1 construct: Uniformly isotopically ^15N -labelled Amyloid-β1-40 (Aβ40); purchased AlexoTech AB, Umeå, Sweden AB-100-05

[3] = molecular target: T2, Aβ40 (Homo sapiens, UniProt P05067); assay type: biochemical
T2 construct: Recombinant Amyloid-β1-40 (Aβ40) wild type peptide; purchased AlexoTech AB, Umeå, Sweden AB-100-10

[4] = molecular target: T2, Aβ40; assay type: biochemical; remark: listed apart in the source
[5] = system: neuroblastoma cells; conditions: cited from earlier work
[6] = molecular target: T1, 15N-Aβ40; experiment: biochemical; assay type: binding
[7] = molecular target: T3, Aβ42 (Homo sapiens, UniProt P05067); assay type: binding; conditions: pH 8.3
T3 construct: Recombinant Amyloid-β1-42 (Aβ42) wild type peptide; purchased rPeptide, Watkinsville, USA A-1163-2

[8] = molecular target: T3, Aβ42; assay type: biochemical; conditions: pH 7.8
[9] = assay type: biochemical; conditions: pH 7.4
[10] = molecular target: T3, Aβ42; assay type: biochemical; conditions: pH 8
[11] = assay type: biochemical; conditions: pH 7.4; remark: listed apart in the source
[12] = molecular target: T3, Aβ42; assay type: biochemical
[13] = molecular target: T3, Aβ42; assay type: binding
[14] = molecular target: T3, Aβ42; assay type: biochemical; conditions: pH 7.3

T2 sequence (P05067 672-711): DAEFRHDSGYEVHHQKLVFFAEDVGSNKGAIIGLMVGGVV
T3 sequence (P05067 672-713): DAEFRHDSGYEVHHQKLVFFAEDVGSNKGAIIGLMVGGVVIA
T1 sequence (P05067 672-711): as the sequence (P05067 672-711) above

Aβ: Amyloid-β (Aβ) peptide, 40 or 42 residues long; in b38 15N-Aβ40
secondary structure in SDS micelles [1]: α-helical secondary structures | aggregation of Aβ40 alone (HSQC signal intensity) [2]: started to aggregate during the incubation

Aβ40: Recombinant Amyloid-β1-40 (Aβ40) wild type peptide
secondary structure by FTIR [3]: both random coil and β-sheet conformations | aggregation half-time τ½, Aβ40 alone + NaF [4]: 2 h | aggregation half-time τ½, Aβ40 alone ([4]; pH 7.3): approximately 6 h

CC[C@H](C)[C@H](NC(=O)[C@H](CC(C)C)NC(=O)[C@H](CC(=O)O)NC(=O)[C@H](CCCCN)NC(=O)[C@@H](NC(=O)[C@H](CCCNC(=N)N)NC(=O)[C@H](CC(C)C)NC(=O)[C@@H](N)CCSC)[C@@H](C)O)C(=O)N[C@@H](Cc1c[nH]c2ccccc12)C(=O)N[C@H](C(=O)N[C@@H](CC(C)C)C(=O)N[C@@H](Cc1ccccc1)C(=O)N[C@@H](Cc1ccccc1)C(=O)N[C@@H](CC(C)C)C(=O)NCC(=O)N[C@H](C(=O)N[C@@H](C)C(=O)N[C@H](C(=O)N[C@@H](CO)C(=O)N[C@@H](CCCCN)C(=O)N[C@@H](CCCCN)C(=O)N[C@@H](CCCNC(=N)N)C(=O)N1CCC[C@H]1C(=O)N[C@@H](CCCCN)C(=O)N1CCC[C@H]1C(N)=O)C(C)C)[C@@H](C)O)[C@@H](C)O [NCAM-PrP] (H-MLRTKDLIWTLFFLGTAVSKKRPKP-NH2)
effect on Aβ-induced cytotoxicity in cells [5]: attenuates Aβ-induced cytotoxicity in cells | toxicity [5]: not toxic at the concentrations studied | Kd [6]: ~160 µM

DAEFR5HDSGY10EVHHQ15KLVFF20AEDVG25SNKGA30IIGLM35VGGVV40IA [Aβ42, Recombinant Amyloid-β1-42 (Aβ42) wild type peptide]
oligomeric state of Aβ42, aqueous [7]: mostly monomeric peptide with a rich population of small and heterogeneous oligomers | effect of 10% pre-formed seeds on Aβ42 amyloid formation, no NCAM-PrP [8]: the amyloid formation was enhanced | calcein leakage by monomeric Aβ42 [9]: around 10% | aggregation half-time τ½, Aβ42 alone [10]: about 4 h | aggregation half-time τ½, Aβ42 alone + NaF [10]: approximately 2.5 h | calcein leakage by monomeric Aβ42 [11]: around 10% | fibril diameter by AFM, Aβ42 alone [12]: approximately 10 nm | share of tetramer in the Aβ42 oligomeric population [13]: about 50% | time at which normalized CD signals at 198 and 220 nm meet, Aβ42 alone [14]: approximately one | β-sheet formation of Aβ42 alone [14]: transitioned into a mostly β-sheet state within 4 h
